Measurements reported in paper PMC10791743, “Selective CK1α degraders exert antiproliferative activity against a broad range of human cancer cell lines” (Nature Communications, 2024).
Several values for one entry are separate records, joined by “and”; a condition that tells them apart may be missing. Equal entries are not always repeated.

How the values were obtained:
[1] = system: panel of 9 human cancer cell lines (HD-MB03, MB004, MB002, MHH-CALL4, MOLM-13, TF-1, HEL, OCI-AML3, AML193); assay: Molecular glue library screening, CellTiter-Glo cell viability, 72 h; assay type: cell-based; settings: CTG, dose-response
Method: We screened our molecular glue library (3630 compounds) against a panel of 9 pediatric cancer cell lines to identify molecules displaying cell-selective sensitivities. In addition to the four cell lines we previously described (MB002, MB004, HD-MB03, and MHHCALL-4)[27], we included five additional AML cell lines (MOLM-13, TF-1, HEL, OCI-AML3, and AML193) to cover a broader range of genetic diversity and cancer vulnerabilities. The library screening was performed in high throughput (384-well plates) by incubating the cells with compounds for 72 h and assessing cell viability via CellTiter-Glo (CTG) in a dose–response manner, as reported previously.
The primary screen was performed in 384-well format using the CellTiter Glo (CTG) luminescent cell viability assay (Promega) as previously described. 3630 compounds from the St. Jude proprietary molecular glue library were screened against 9 human cancer cell lines (HD-MB03, MB004, MB002, MHH-CALL4, MOLM-13, TF-1, HEL, OCI-AML3, AML193). Each cell line was cultured in the complete medium recommended by the vendor and seeded in Corning 8804 BC white 384-well assay plates at densities of 1000, 1000, 1500, 7500, 1250, 156, 625, 1250, 1250 cells per well for HD-MB03, MB004, MB002, MHH-CALL4, MOLM-13, TF-1, HEL, OCI-AML, AML193, respectively. After overnight incubation at 37 °C in a humidified 5% CO2 incubator, cells were treated with compounds in dose–response format using a Pintool on a Biomek FX^P Laboratory Automation Workstation (Beckman Coulter). After 72 h of incubation, cell proliferation was assessed using a CellTiter-Glo (CTG) luminescent cell viability assay (Promega) according to the manufacturer’s instructions. Luminescence signal was measured using an EnVision plate reader (PerkinElmer).

[2] = Pharmacokinetics in female CD1 mice; assay type: in vivo, mouse; settings: female CD1 mice
Method: Three mice were housed in each cage. […] Temperature and humidity were recorded by an auto-controlled data logger system. All the animals were provided a laboratory rodent diet (Altromin, Germany). Reverse osmosis water treated with ultraviolet light was provided ad libitum. Total 27 mice (n = 9/group) were divided into three groups as Group 1, Group 2, and Group 3 with a sparse sampling design (3 mice/time points). […] The formulation vehicle for IV was 5% v/v NMP, 5% v/v Solutol HS-15 and 90% v/v Normal saline, and for PO & IP was 10%v/v NMP, 10%v/v Solutol HS-15. 50%v/v PEG-400 and 30%v/v HPβCD (20%w/v) in saline. […] Immediately after blood collection, plasma was harvested by centrifugation at 12,300×g, 10 min at 4 °C and samples were stored at −70 ± 10 °C until bioanalysis. Concentrations of SJ3149 in mouse plasma samples were determined by fit-for-purpose LC–MS/MS method. Non-Compartmental-Analysis tool of Phoenix WinNonlin® (Version 8.3) was used to assess the pharmacokinetic parameters. Peak plasma concentration (Cmax) and time for the peak plasma concentration (Tmax) were the observed values. The area under the concentration–time curve (AUClast) was calculated by the linear trapezoidal rule. The terminal elimination rate constant, ke was determined by regression analysis of the linear terminal portion of the log plasma concentration-time curve. Clearance was estimated as Dose/AUCinf and Vss as CL*MRT.

MOLM-13 cells = assay: MOLM-13 cell viability assay (CTG, 72 h); assay type: cell-based, human; set-up: key to Cell viability in MOLM-13 cells / cell viability, dose-response replicate values: % viability = 100 − % activity, normalized to controls; settings: for cell viability, dose-response replicate values: MOLM-13 WT, listed as CC-220
Method: The primary screen was performed in 384-well format using the CellTiter Glo (CTG) luminescent cell viability assay (Promega) as previously described. […] After overnight incubation at 37 °C in a humidified 5% CO2 incubator, cells were treated with compounds in dose–response format using a Pintool on a Biomek FX^P Laboratory Automation Workstation (Beckman Coulter). […] Luminescence signal was measured using an EnVision plate reader (PerkinElmer). […]
number per well and incubated overnight at 37 °C in a humidified 5 % CO2 incubator. Compounds were transferred to the assay plate from a dose-response plate using a Labcyte Echo 650 Acoustic Liquid Handler (Beckman Coulter , USA). […]
using Promega’s CellTiter-Glo reagent according to the manufacturer’s recommendation.
Luminescence was measured on the Envision plate reader (PerkinElmer, USA). Raw luminescence relative light unit (RLU) values for each compound at each concentration were normalized to obtain % activity using the following equation (1): 100 × [(mean(negctrl) – compound)/(mean (negctrl) – mean (posctrl))]. The % activity was converted to % viability using the following equation (2):
(100 – % activity), and then pooled from replicate experiments prior to fitting. Here, negctrl and posctrl refer to the negative (DMSO) and positive controls (staurosporine) on each plate. Dose-response curves were fit to the Hill equation using the GraphPad Prism (version 10). […]

[3] = single intraperitoneal 50 mg/kg, 0.5 hr
[4] = single intraperitoneal 50 mg/kg, 1 hr
[5] = single intraperitoneal 50 mg/kg, 2 hr
[6] = single intraperitoneal 50 mg/kg, 6 hr
[7] = single intraperitoneal 50 mg/kg, 8 hr
[8] = single intraperitoneal 50 mg/kg, 24 hr

For Cc1ccc(NC(=O)NCc2ccc3c(c2)CN(C2CCC(=O)NC2=O)C3=O)cc1Cl (stereo not shown) [CC-885], the “Cell viability across the panel of AL and MB cell lines” value (“Cell viability across the panel” for short) [1] was “cytotoxic to all cell lines in the panel”.
For O=C1CCC(N2C(=O)c3ccc(NS(=O)(=O)c4ccccc4OC(F)(F)F)cc3C2=O)C(=O)N1 (stereo not shown) [SJ6986], the “Cell viability across the panel” value [1] was “cytotoxic to all cell lines in the panel”.
For O=C1CCC(N2Cc3cc(Nc4noc5ccccc45)ccc3C2=O)C(=O)N1 (stereo not shown) [SJ001043149], the “Plasma Concentration, Mean” value [2, 3] was 4253.68 ng/mL, the “Plasma Concentration, individual animal” value [2, 3] was 2474.57 ng/mL and 2615.2 ng/mL and 7671.27 ng/mL and the “Plasma Concentration, Mean” value [2, 4] was 3788.89 ng/mL. For the same molecule, the “Plasma Concentration, individual animal” value [2, 4] was 3408.76 ng/mL and 3558.82 ng/mL and 4399.09 ng/mL, the “Plasma Concentration, Mean” value [2, 5] was 3436.75 ng/mL and the “Plasma Concentration, individual animal” value [2, 5] was 3844.39 ng/mL and 3042 ng/mL and 3423.87 ng/mL. For the same molecule, the “Plasma Concentration, individual animal” value ([2]; single intraperitoneal 50 mg/kg, 4 hr) was 37.79e ng/mL and 613.87 ng/mL and 1233.77 ng/mL, the “Plasma Concentration, Mean” value ([2]; single intraperitoneal 50 mg/kg, 4 hr, average of two values) was 923.82 ng·days/mL and the “Plasma Concentration, Mean” value [2, 6] was 336.83 ng/mL. The “Plasma Concentration, individual animal” value [2, 6] was 224.92 ng/mL and 422.53 ng/mL and 363.03 ng/mL, the “Plasma Concentration, Mean” value [2, 7] was 626.18 ng/mL and the “Plasma Concentration, individual animal” value [2, 7] was 584.82 ng/mL and 376.02 ng/mL and 917.7 ng/mL. For the same molecule, the “Plasma Concentration, individual animal” value ([2]; single intraperitoneal 50 mg/kg, 12 hr) was 1.02e ng/mL and 119 ng/mL and 188.95 ng/mL, the “Plasma Concentration, Mean” value ([2]; single intraperitoneal 50 mg/kg, 12 hr, average of two values) was 153.98 ng·days/mL and the “Plasma Concentration, Mean” value [2, 8] was 14.86 ng/mL. For the same molecule, the “Plasma Concentration, individual animal” value [2, 8] was 16.86 ng/mL and 11.98 ng/mL and 15.73 ng/mL, the “Plasma Concentration, Mean” value ([2]; single intravenous 3 mg/kg, 0.08 hr) was 3540.18 ng/mL and the “Plasma Concentration, individual animal” value ([2]; single intravenous 3 mg/kg, 0.08 hr, 3 mg/kg) was 3522.19 ng/mL and 3164.19 ng/mL and 3934.15 ng/mL. For the same molecule, the “Plasma Concentration, Mean” value ([2]; single intravenous 3 mg/kg, 0.5 hr) was 548.51 ng/mL, the “Plasma Concentration, individual animal” value ([2]; single intravenous 3 mg/kg, 0.5 hr, 3 mg/kg) was 590.56 ng/mL and 721 ng/mL and 333.96 ng/mL and the “Plasma Concentration, individual animal” value ([2]; single intravenous 3 mg/kg, 1 hr, 3 mg/kg) was 89.11 ng/mL and 82.85 ng/mL and 465.12e ng/mL. For the same molecule, the “Plasma Concentration, Mean” value ([2]; single intravenous 3 mg/kg, 1 hr, average of two values) was 85.98 ng·days/mL, the “Plasma Concentration, Mean” value ([2]; single intravenous 3 mg/kg, 2 hr) was 21.37 ng/mL and the “Plasma Concentration, individual animal” value ([2]; single intravenous 3 mg/kg, 2 hr, 3 mg/kg) was 26.85 ng/mL and 22.73 ng/mL and 14.53 ng/mL. The “Plasma Concentration, Mean” value ([2]; single intravenous 3 mg/kg, 4 hr) was 5.15 ng/mL, the “Plasma Concentration, individual animal” value ([2]; single intravenous 3 mg/kg, 4 hr, 3 mg/kg) was 2.92 ng/mL and 9.75 ng/mL and 2.78 ng/mL and the “Plasma Concentration, individual animal” value ([2]; single intravenous 3 mg/kg, 8 hr, LLOQ 1.00 ng/mL, 3 mg/kg) was “BLQ and 2.43e ng/mL”. The “Plasma Concentration, individual animal” value ([2]; single intravenous 3 mg/kg, 12 hr, LLOQ 1.00 ng/mL) was “BLQ”, the “Plasma Concentration, individual animal” value ([2]; single intravenous 3 mg/kg, 24 hr, LLOQ 1.00 ng/mL) was “BLQ” and the “Plasma Concentration, Mean” value ([2]; single oral 50 mg/kg, 0.5 hr) was 1802.13 ng/mL. The “Plasma Concentration, individual animal” value ([2]; single oral 50 mg/kg, 0.5 hr, 50 mg/kg) was 1597.22 ng/mL and 2494.42 ng/mL and 1314.74 ng/mL, the “Plasma Concentration, Mean” value ([2]; single oral 50 mg/kg, 1 hr) was 635.82 ng/mL and the “Plasma Concentration, individual animal” value ([2]; single oral 50 mg/kg, 1 hr, 50 mg/kg) was 300.99 ng/mL and 799.29 ng/mL and 807.18 ng/mL. The “Plasma Concentration, individual animal” value ([2]; single oral 50 mg/kg, 2 hr, 50 mg/kg) was 207.45 ng/mL and 268.31 ng/mL and 77.73e ng/mL, the “Plasma Concentration, Mean” value ([2]; single oral 50 mg/kg, 2 hr, average of two values) was 237.88 ng·days/mL and the “Plasma Concentration, Mean” value ([2]; single oral 50 mg/kg, 4 hr) was 35.43 ng/mL. For the same molecule, the “Plasma Concentration, individual animal” value ([2]; single oral 50 mg/kg, 4 hr, 50 mg/kg) was 57.72 ng/mL and 27.57 ng/mL and 21 ng/mL, the “Plasma Concentration, individual animal” value ([2]; single oral 50 mg/kg, 6 hr, 50 mg/kg) was 5.43e ng/mL and 17.18 ng/mL and 23.01 ng/mL and the “Plasma Concentration, Mean” value ([2]; single oral 50 mg/kg, 6 hr, average of two values) was 20.10 ng·days/mL. For the same molecule, the “Plasma Concentration, individual animal” value ([2]; single oral 50 mg/kg, 8 hr, 50 mg/kg) was 6.11 ng/mL and 16.97 ng/mL and 1.39e ng/mL, the “Plasma Concentration, Mean” value ([2]; single oral 50 mg/kg, 8 hr, average of two values) was 11.54 ng·days/mL and the “Plasma Concentration, Mean” value ([2]; single oral 50 mg/kg, 12 hr) was 3.98 ng/mL. For the same molecule, the “Plasma Concentration, individual animal” value ([2]; single oral 50 mg/kg, 12 hr, 50 mg/kg) was 3.44 ng/mL and 4.89 ng/mL and 3.6 ng/mL and the “Plasma Concentration, individual animal” value ([2]; single oral 50 mg/kg, 24 hr, LLOQ 1.00 ng/mL, 50 mg/kg) was 2.03e ng/mL and BLQ.
In the case of O=C1CC[C@H](N2Cc3c(OCc4ccc(CN5CCOCC5)cc4)cccc3C2=O)C(=O)N1 [iberdomide, reference compound], the “Effect on MOLM-13 cell viability (cytotoxicity)” value (MOLM-13 cells; CTG 72 h) is reported as “very little effect”, the “cell viability, dose-response replicate values” (MOLM-13 cells; Concentration 0.00053416) is reported as 104.205 and 101.273 and 105.756 and the “cell viability, dose-response replicate values” (MOLM-13 cells; Concentration 0.00160248) is reported as 116.013 and 103.828 and 106.347. The “cell viability, dose-response replicate values” (MOLM-13 cells; Concentration 0.00480744) was 99.9393 and 109.095 and 93.7856, the “cell viability, dose-response replicate values” (MOLM-13 cells; Concentration 0.0144223) was 103.939 and 96.4969 and 110.266 and the “cell viability, dose-response replicate values” (MOLM-13 cells; Concentration 0.0432669) was 111.735 and 98.8709 and 109.735. The “cell viability, dose-response replicate values” (MOLM-13 cells; Concentration 0.129801) was 112.307 and 99.7991 and 100.005, the “cell viability, dose-response replicate values” (MOLM-13 cells; Concentration 0.389402) was 95.4783 and 95.9453 and 89.9456 and the “cell viability, dose-response replicate values” (MOLM-13 cells; Concentration 1.16821) was 93.0089 and 93.9287 and 92.6782. The “cell viability, dose-response replicate values” (MOLM-13 cells; Concentration 3.50462) was 93.5137 and 89.0055 and 86.6893 and the “cell viability, dose-response replicate values” (MOLM-13 cells; Concentration 10.5139) was 95.8132 and 82.1796 and 91.7179.
For Nc1cccc2c1C(=O)N(C1CCC(=O)NC1=O)C2=O (stereo not shown) [pomalidomide], the “Cell viability across the panel” value [1] was “inactive”.
